Measurements reported in PubChem BioAssay (NCI).
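Method: 48-hour compound exposure of cells in 96-well plates, five concentrations, linear interpolation of endpoints. At the TGI there is no net growth.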

Experiments:
Test in all cases: NCI tumour cell line growth inhibition, 48 h
[1] = system: XF 498 CNS
[2] = system: NCI-H460 lung
[3] = system: LOX IMVI melanoma
[4] = system: OVCAR-8 ovarian
[5] = system: DMS 273 small cell lung
[6] = system: HOP-18 NSCLC
[7] = system: 786-0 renal
[8] = system: MOLT-4 leukemia
[9] = system: EKVX NSCLC
[10] = system: KM20L2 colon
[11] = system: K-562 leukemia
[12] = system: COLO 205 colon
[13] = system: KM12 colon
[14] = system: IGROV1 ovarian
[15] = system: OVCAR-4 ovarian
[16] = system: SF-268 CNS
[17] = system: SN12C renal
[18] = system: U251 CNS
[19] = system: SK-MEL-2 melanoma
[20] = system: HOP-62 NSCLC
[21] = system: NCI-H23 lung
[22] = system: NCI-H226 lung
[23] = system: RXF 393 renal
[24] = system: LXFL 529 NSCLC
[25] = system: ACHN renal
[26] = system: A549 NSCLC
[27] = system: SF-295 CNS
[28] = system: HL-60(TB) leukemia
[29] = system: UACC-257 melanoma
[30] = system: CCRF-CEM leukemia
[31] = system: HOP-92 NSCLC
[32] = system: TK-10 renal
[33] = system: SW-620 colon
[34] = system: CAKI-1 renal
[35] = system: HCT-116 colon
[36] = system: A498 renal
[37] = system: SK-MEL-28 melanoma
[38] = system: MALME-3M melanoma
[39] = system: SR leukemia
[40] = system: HT29 colon
[41] = system: SNB-78 CNS
[42] = system: SNB-19 CNS
[43] = system: OVCAR-5 ovarian
[44] = system: SF-539 CNS
[45] = system: HCC-2998 colon
[46] = system: M19-MEL melanoma
[47] = system: NCI-H522 lung
[48] = system: HCT-15 colon
[49] = system: M14 melanoma
[50] = system: SNB-75 CNS
[51] = system: DMS 114 small cell lung
[52] = system: SK-OV-3 ovarian
[53] = system: DLD-1 colon
[54] = system: UACC-62 melanoma
[55] = system: RPMI-8226 leukemia
[56] = system: SK-MEL-5 melanoma
[57] = system: UO-31 renal
[58] = system: OVCAR-3 ovarian
[59] = system: RXF-631 renal

Measured: TGI

BrC1(Br)C2/C=C\CCCCC21 (stereo unspecified)
not listed: [48] | [49] | [50] | [51] | [52] | [53] | [54] | [55] | [56] | [57] | [58] | [59]
> 100 µM: all other assays above

O=[N+]([O-])c1nccn1COCCBr
not listed: [5] | [6] | [12] | [14] | [23] | [36] | [41] | [45] | [59]
> 100 µM: all other assays above

CC(=O)O[C@@H]1C2C(=O)OC(=O)C2C2CCC[C@]23O[C@H]13 (stereo partly specified)
not listed: [1] | [3] | [9] | [21] | [27] | [31] | [40] | [43] | [59]
> 100 µM: all other assays above

CCOc1ccccc1NC(=O)CCc1nc(=S)[nH][nH]1
not listed: [1] | [5] | [10] | [36] | [50]
> 100 µM: all other assays above
